Values after ≈ are worked out from the molar mass of the structure shown. Structures can show the parent of a compound that is named as a salt. Where two headings read alike, the source gives them in different places.
Experiments:
Format in all cases: cell-based
SARS-CoV-2 Delta variant [1] = test system: SARS-CoV-2 Delta variant
SARS-CoV-2 A2.5 variant [2] = test system: SARS-CoV-2 A2.5 variant
SARS-CoV-2 Delta variant [3] = test system: SARS-CoV-2 Delta variant; remark: listed apart in the source
[4] = test system: SARS-CoV-2 Delta variant (SEQ203); conditions: for % inhibition Vero E6 Delta MOI 0.0001 / % inhibition Vero E6 Delta MOI 0.01: at MNCC, 48 h; for % inhibition Vero E6 Delta MOI 0.0001: 1x; for % inhibition Vero E6 Delta MOI 0.01: mean 2x
SARS-CoV-2 A2.5 variant [5] = assay: microbe, parasite or virus in culture
[6] = test system: SARS-CoV-2 A2.5 variant (M2169); conditions: for % inhibition Calu-3 A2.5 MOI 0.01: at MNCC, 48 h, mean 2x
[7] = test system: SARS-CoV-2 Delta variant (SEQ203); conditions: at MNCC, 48 h, 1x
[8] = test system: SARS-CoV-2 A2.5 variant (M2169); conditions: for % inhibition Vero E6 A2.5 MOI 0.01: at MNCC, 48 h, 1x
[9] = Severe acute respiratory syndrome coronavirus 2, Vero C1008, 72 h, read-out: IC50%
[10] = Severe acute respiratory syndrome coronavirus 2, Vero C1008, 72 h, read-out: IC50% in µg/mL
[11] = Severe acute respiratory syndrome coronavirus 2, Vero C1008, read-out: IC50 (Figure 4 curve)
[12] = Severe acute respiratory syndrome coronavirus 2, Vero C1008, read-out: IC90%
[13] = Severe acute respiratory syndrome coronavirus 2, Vero C1008, read-out: IC90% in µg/mL

SMILES: CCN(CC)CCCC(C)Nc1ccnc2cc(Cl)ccc12 (stereo not shown) [Chloroquine diphosphate (CQ), Chloroquine diphosphate]
- period of most of the inhibitory effect, Delta (SARS-CoV-2 Delta variant [1]): during the adsorption phase
- less susceptible to CQ than to PQ, Delta (SARS-CoV-2 Delta variant [1]; Vero-E6, same time interval): 2–4 orders of magnitude
- period of most of the inhibitory effect, A2.5 (SARS-CoV-2 A2.5 variant [2]): during the adsorption phase
- less susceptible to CQ than to PQ, A2.5 (SARS-CoV-2 A2.5 variant [2]; Vero-E6, same time interval): 2–4 orders of magnitude
- antiviral effect, treatment 1 hour post-infection, Delta (SARS-CoV-2 Delta variant [3]): dose-dependent antiviral effect
- effect on viral replication, treatment 1 hour pre-infection, Delta (SARS-CoV-2 Delta variant [3]): did not influence the viral replication
- antiviral inhibition at MOI = 0.00001 [4]: ≥ 20%
- less potent against the Delta compared to the A2.5 variant [4]: 20%
- % inhibition Vero E6 Delta MOI 0.0001 [4]: 44%
- IC50 (SARS-CoV-2 A2.5 variant [5]; [9]): 6.3 µM
- IC50 (SARS-CoV-2 A2.5 variant [5]; [10]): 2 µg/mL
- IC50 (SARS-CoV-2 A2.5 variant [5]; [11]): 6.27 µM
- IC90 (SARS-CoV-2 A2.5 variant [5]; [12]): 56.7 µM
- IC90 (SARS-CoV-2 A2.5 variant [5]; [13]): 18.1 µg/mL
- inhibition of A.2.5 infection in Calu-3 compared to camostat (CAM) ([6]; Calu-3): two-fold less

SMILES: CCN(CCO)CCCC(C)Nc1ccnc2cc(Cl)ccc12 (stereo not shown) [Hydroxychloroquine sulfate (HCQ), Hydroxychloroquine sulfate]
- % inhibition Calu-3 Delta MOI 0.01 [7]: 9%
- % inhibition Calu-3 Delta MOI 0.01 ([7]; listed as HCQ): effective
- less potent against the Delta compared to the A2.5 variant [4]: 40%
- % inhibition Vero E6 Delta MOI 0.0001 [4]: 43%
- % inhibition Vero E6 Delta MOI 0.01 [4]: 10%
- IC50 (SARS-CoV-2 A2.5 variant [5]; [9]): 12.6 µM
- IC50 (SARS-CoV-2 A2.5 variant [5]; [10]): 5.8 µg/mL
- IC50 (SARS-CoV-2 A2.5 variant [5]; [11]): 13.3 µM
- IC90 (SARS-CoV-2 A2.5 variant [5]; [12]): 113 µM
- IC90 (SARS-CoV-2 A2.5 variant [5]; [13]): 38.1 µg/mL
- times more potent against A2.5 than Delta ([8]; Vero-E6): 1.8 times
- % inhibition Vero E6 A2.5 MOI 0.01 [8]: 29%
- % inhibition Calu-3 A2.5 MOI 0.01 [6]: 16%

SMILES: C[C@H]1[C@H](OC(=O)CCC(=O)O)O[C@@H]2O[C@@]3(C)CC[C@H]4[C@H](C)CC[C@@H]1[C@@]24OO3 [Artesunate injection (ASi), Artesunate]
- antiviral inhibition at MOI = 0.00001 [4]: ≥ 20%
- less potent against the Delta compared to the A2.5 variant [4]: 20%
- % inhibition Vero E6 Delta MOI 0.0001 [4]: 41%
- IC50 (SARS-CoV-2 A2.5 variant [5]; [9]): 28.7 µM
- IC50 (SARS-CoV-2 A2.5 variant [5]; [10]): 11 µg/mL
- IC90 (SARS-CoV-2 A2.5 variant [5]; [12]): 258 µM
- IC90 (SARS-CoV-2 A2.5 variant [5]; [13]): 99.3 µg/mL
- % inhibition Vero E6 A2.5 MOI 0.01 [8]: 0%
- % inhibition Calu-3 A2.5 MOI 0.01 [6]: 10%

SMILES: COc1cc(NC(C)CCCN)c2ncccc2c1 (stereo not shown) [Primaquine Phosphate (PQ), Primaquine Phosphate]
- effect on viral load, time of addition, Delta (SARS-CoV-2 Delta variant [1]): substantially lower viral load
- period of most of the inhibitory effect, Delta (SARS-CoV-2 Delta variant [1]): ≤ 5 h
- effect on viral load, time of addition, A2.5 (SARS-CoV-2 A2.5 variant [2]): substantially lower viral load
- period of most of the inhibitory effect, A2.5 (SARS-CoV-2 A2.5 variant [2]): ≤ 3 h
- antiviral effect, treatment 1 hour post-infection, Delta (SARS-CoV-2 Delta variant [3]): dose-dependent antiviral effect
- effect on viral replication, treatment 1 hour pre-infection, Delta (SARS-CoV-2 Delta variant [3]): did not influence the viral replication
- % inhibition Vero E6 Delta MOI 0.0001 [4]: 2%
- % inhibition Vero E6 Delta MOI 0.01 [4]: 18%
- IC50 (SARS-CoV-2 A2.5 variant [5]; [9]): 15.3 µM
- IC50 (SARS-CoV-2 A2.5 variant [5]; [10]): 5 µg/mL
- IC50 (SARS-CoV-2 A2.5 variant [5]; [11]): 19.3 µM
- IC90 (SARS-CoV-2 A2.5 variant [5]; [12]): 138 µM
- IC90 (SARS-CoV-2 A2.5 variant [5]; [13]): 35.7 µg/mL
- % inhibition Calu-3 A2.5 MOI 0.01 [6]: 10%

SMILES: CC[C@H](C)[C@H]1O[C@]2(CC[C@@H]1C)C[C@@H]1C[C@@H](C/C=C(\C)[C@@H](O[C@H]3C[C@H](OC)[C@@H](O[C@H]4C[C@H](OC)[C@@H](O)[C@H](C)O4)[C@H](C)O3)[C@@H](C)/C=C/C=C3\CO[C@@H]4[C@H](O)C(C)=C[C@@H](C(=O)O1)[C@]34O)O2 [Ivermectin (IVM), Ivermectin]
- % inhibition Calu-3 Delta MOI 0.01 [7]: 17%
- % inhibition Vero E6 Delta MOI 0.0001 [4]: 19%
- % inhibition Vero E6 Delta MOI 0.01 [4]: 11%
- IC50% (SARS-CoV-2 A2.5 variant [5]): 63.6 µg/mL (≈ 72.7 µM)
- IC50 (SARS-CoV-2 A2.5 variant [5]; read-out: IC50%): 72.7 µM
- % inhibition Vero E6 A2.5 MOI 0.01 [8]: 5%
- % inhibition Calu-3 A2.5 MOI 0.01 [6]: 15%

From publication PMC12175177 (Frontiers in Pharmacology, 2025)
